These results are taken from article PMC6350621, “Small-molecules that covalently react with a human prolyl hydroxylase – towards activity modulation and substrate capture” (Chemical Communications (Cambridge, England), 2018).

Structures are written as SMILES.

The target of test [1] is PHD1 (Homo sapiens, UniProt Q96KS0). Description: Denaturing MS covalent adduct formation with PHD1. Type of test: binding. Conditions: enzyme 20 μM, Fe(II) 30 μM, compound 30 μM, 37 °C, 4 h.
Test [2] addresses T1, PHD2_181–426 (Homo sapiens, UniProt Q9GZT9).
T1 construct: PHD2_181–426 (hereafter PHD2); His6 (N, cleaved yes); made in house; host or cells: bacterial culture (2x TY, kanamycin, IPTG)
Put plainly: Non-denaturing ESI-MS of covalent adduct formation with PHD2. It counts as binding. Conditions: equimolar PHD2/Fe(II), 37 °C. The procedure: The interaction of the ligands with PHD2_181–426 (hereafter PHD2) was examined by non-denaturing ESI-MS, using cone voltage variation to distinguish covalent and non-covalent complexes (non-covalent interactions are typically preserved at cone voltages of 50–80 V, and dissociated at 200 V).[16]–[18] Aldehydes 1 and 2 were incubated with equimolar PHD2 and Fe(II) (37 °C; 5 or 20 min). […] Without Fe(II), neither covalent nor non-covalent adducts were observed, implying covalent conjugation involves active site Fe(II) binding, with subsequent condensation.
Fig. S2 A) Schematic representation of the assigned species formed on addition of 1 or 2 to PHD2. The results support initial non-covalent binding of the inhibitors to PHD2.Fe(II) to form B. Subsequently, condensation of a lysine residue with the aldehyde forms the covalent adduct C. (B) and (C): Non-denaturing ESI-MS data support the covalent crosslinking of 1/2 with PHD2. Conditions: PHD2 (20 µM) was incubated (37 °C, 5 or 20 min) with equimolar FeSO4 and 1 or 2, and the resulting mixtures were analysed by ESI-MS (cone voltage: 50 V or 200 V). Labelled peaks correspond to: A: Unmodified PHD2.Fe. B: Non-covalent adduct PHD2.Fe.2. C: Covalent adduct PHD2.Fe.1/2.
Fig. S6 The α,β-unsaturated amide 3 can covalently modify PHD2. (A) Schematic representation of the adducts formed upon incubation of 3 with PHD2.
PHD2. PHD2 (20 µM) was incubated (37 °C, 5 min, 1 h or 2 h) with equimolar FeSO4 and 3 or 4 before analysis by ESI-MS (cone voltage: 50 V or 200 V). Labelled peaks correspond to the following assigned complexes: A: unmodified PHD2.Fe; B: the non-covalent PHD2.Fe.3 adduct; C: the covalent PHD2.Fe.3 adduct.
2. Experimental procedures
1.1.1 Non-denaturing mass spectrometry1
Apo PHD2 was desalted using a Bio-Spin 6 Column (Bio-Rad, Hemel Hempstead, UK) into 15 mM ammonium acetate (pH 7.5). The stock solution was diluted with the same buffer to a final concentration of 100 μM. FeSO4·7H2O was dissolved in 20 mM HCl at a concentration of 100 mM. This solution was then diluted with MilliQ purified water to give a final working concentration of 100 μM. The protein was mixed with the Fe(II) solution and the inhibitor solution to give final concentrations of 20 μM PHD2, 20 μM Fe(II), and 20 μM inhibitor. The resultant solution was incubated for the appropriate time (specified in the text) at 37 […]
(5 min or 20 min) at 37 °C. After incubation, the samples were immediately analysed by ESI-MS. Data were acquired using a Q-TOF mass spectrometer (Q-TOF micro, Micromass, Altrincham, UK) interfaced with a Nanomate (Advion Biosciences, Ithaca, NY, USA) with a chip voltage of 1.70 kV and a delivery pressure 0.5 psi (1 psi = […]). The sample cone voltage was typically 200 or 50 V with a source temperature of 40 °C and with an acquisition/scan time of 10s/1s. Sample acquisition was performed in positive ion mode in the range of 2000-4000 m/z. The pressure at the interface between the atmospheric source and the high vacuum region was fixed at 6.30 mbar. External instrument calibration was achieved using sodium iodide.

T1 sequence (Q9GZT9 181-426): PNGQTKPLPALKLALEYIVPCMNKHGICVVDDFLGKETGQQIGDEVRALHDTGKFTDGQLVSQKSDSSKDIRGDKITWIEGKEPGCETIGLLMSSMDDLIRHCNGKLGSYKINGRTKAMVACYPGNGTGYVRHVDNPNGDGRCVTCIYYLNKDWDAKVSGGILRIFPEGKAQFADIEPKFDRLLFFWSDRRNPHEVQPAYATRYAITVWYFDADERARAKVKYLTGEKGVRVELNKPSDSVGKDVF
Chain of PHD1 (Q96KS0 whole entry): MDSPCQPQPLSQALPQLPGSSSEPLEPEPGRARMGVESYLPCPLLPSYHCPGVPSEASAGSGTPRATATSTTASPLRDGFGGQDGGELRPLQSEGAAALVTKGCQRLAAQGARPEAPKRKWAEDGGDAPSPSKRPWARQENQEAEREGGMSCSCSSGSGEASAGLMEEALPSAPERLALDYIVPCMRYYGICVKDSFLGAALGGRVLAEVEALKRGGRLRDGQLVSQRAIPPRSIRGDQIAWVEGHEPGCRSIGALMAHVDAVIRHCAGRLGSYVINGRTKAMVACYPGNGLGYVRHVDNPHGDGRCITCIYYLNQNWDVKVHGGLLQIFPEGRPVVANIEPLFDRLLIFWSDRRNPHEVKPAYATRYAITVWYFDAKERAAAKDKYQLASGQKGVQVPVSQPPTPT

With `C=CC(=O)Nc1cccc(C(=O)NCC(=O)O)c1O` [compound 3], in test [1], the “covalent reaction with PHD1” value is “did not covalently react”. In test [2] (1 h), the “conversion to the covalent adduct after 1 h” value is 1/3. Besides, the “conversion to the covalent adduct after 2 h” value in test [2] (2 h) is listed as 2/3.
